Earlier results on one substance are cited in patent US4681764A, “Porous and spherical carbonaceous product” (Kureha Kagaku Kogyo Kabushiki Kaisha, priority 1979, dated 1987).

The conditions of the series: in vivo.

Consider oxidized starch, for which the “stimulation of the intestinal wall” value is “side-reaction of stimulating the intestinal wall”.
